Several values for one entry are separate records, joined by “and”; a condition that tells them apart may be missing. Equal values may be shown once.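 Step 1: Grow cells in 96-well plates. Step 2: Expose to compound for 48 hours at 5 concentrations. Step 3: Interpolate endpoints linearly; if unreached, use highest concentration. GI50 is the concentration that inhibits growth by half. At the TGI there is no net growth.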
Columns and labels:
Assay in all cases: NCI anticancer screen, dose series, 48 h
OVCAR-8 ovarian = tested on: OVCAR-8 ovarian
UACC-257 melanoma = tested on: UACC-257 melanoma
OVCAR-5 ovarian = tested on: OVCAR-5 ovarian
BT-549 breast = tested on: BT-549 breast
SF-295 CNS = tested on: SF-295 CNS
SK-OV-3 ovarian = tested on: SK-OV-3 ovarian
SK-MEL-2 melanoma = tested on: SK-MEL-2 melanoma
NCI-H522 lung = tested on: NCI-H522 lung
KM12 colon = tested on: KM12 colon
EKVX NSCLC = tested on: EKVX NSCLC

Compound | GI50 (OVCAR-8 ovarian) | TGI (OVCAR-8 ovarian) | GI50 (UACC-257 melanoma) [µM] | TGI (UACC-257 melanoma) | GI50 (OVCAR-5 ovarian) [µM] | TGI (OVCAR-5 ovarian) [µM] | GI50 (BT-549 breast) [µM] | TGI (BT-549 breast) [µM] | GI50 (SF-295 CNS) [µM] | TGI (SF-295 CNS) | GI50 (SK-OV-3 ovarian) [µM] | TGI (SK-OV-3 ovarian) | GI50 (SK-MEL-2 melanoma) | TGI (SK-MEL-2 melanoma) | GI50 (NCI-H522 lung) [µM] | TGI (NCI-H522 lung) [µM] | GI50 (KM12 colon) [µM] | TGI (KM12 colon) [µM] | TGI (EKVX NSCLC) | GI50 (EKVX NSCLC)
COc1cccc(C2CC(=O)Nc3c2c(C)nn3-c2nc3ccccc3[nH]2)c1OC (configuration not stated) | 4.41 µM | > 100 µM | 5.77 | 39.8 µM | 11.8 | > 100 | 5.52 | 42.2 | 1.37 | 3.78 µM | 3.83 | 13 µM | 6.37 µM | 32.7 µM | 3.7 | 17.8 | 4.17 | 19.8 | – | –
COC(=O)CC1(O)C(=O)OCc2c1cc1n(c2=O)Cc2c-1nc1ccccc1c2OC (configuration not stated) | – | > 28.5 µM | – | > 100 µM | – | > 100 | – | – | – | 17.5 µM | – | 17.4 µM | – | 74.6 µM | – | 16.3 | – | > 100 | > 100 µM | –
Cc1ccc(C)c2c1C1CCCCC3(OCCCO3)C21O (configuration not stated) | – | > 100 µM | – | > 100 µM | – | > 100 | – | – | – | > 100 µM | – | > 100 µM | – | > 100 µM | – | > 100 | – | > 100 | – | –
COc1cc(-c2nc(-c3ccccc3)c(-c3ccccc3)[nH]2)cc(OC)c1O | 26.5 µM | 83.2 µM | 21.7 | 44.8 µM | 15.4 | 31.7 | 19.5 | 39.5 | 17.1 | 45.5 µM | 23.1 | 47.8 µM | 19.8 µM | 35.5 µM | 17.6 | 33.8 | 15.1 | 30.4 | – | –
Cn1c(=O)c(-c2ccccc2Cl)cc2cnc(NC3CCOCC3)nc21 | 10.2 µM | > 25 µM | 14.8 | > 25 µM | 18.5 | > 25 | > 25 | > 25 | 12.1 | > 25 µM | 8.89 | > 25 µM | 6.1 µM | 14.7 µM | 12.6 | > 25 | 21.1 | > 25 | – | –
O=C(N/C(=C\c1ccc([N+](=O)[O-])cc1)c1nc2ccccc2s1)c1ccccc1 | – | 64.2 µM | – | 85.2 µM | – | > 100 | – | – | – | – | – | > 100 µM | – | 80.5 µM | – | – | – | 92.1 | – | –
C/C=C/C=C/c1cc2cc3c(c(O)c2c(=O)[nH]1)C1(CC3)C(O)=c2c(=O)c3c(=O)cc(OC)c(=O)c=3c(=O)c2=C1O (configuration not stated) | 0.145 µM and 0.902 µM | 5.15 µM and 15.5 µM | – | 1.87 µM and 6.45 µM | – | – | – | – | – | 2.91 µM and 8.02 µM | – | 16 µM and 8.75 µM | 0.249 µM and 0.885 µM | 14.2 µM and 4.86 µM | – | – | – | 16.5 | 3 µM and 12.2 µM | 0.188 µM and 1.12 µM
Fc1ccccc1CN1COc2c(cc(Cl)c3cccnc23)C1 | – | 10.7 µM | – | 8.73 µM | – | 15.3 | – | – | – | 12.1 µM | – | 19.6 µM | – | 19.1 µM | – | 14.1 | – | 12.1 | 2.72 µM | –
Nc1nc(SCc2ccccc2CCl)c2[nH]cnc2n1 | 28.2 µM | > 100 µM | 14.5 | 32.9 µM | 18.9 | 34.6 | 13.7 | 29.6 | 18.7 | 56 µM | 16 | 32.2 µM | – | – | – | – | 14.8 | 28.1 | 25.9 µM | 12.9 µM

From PubChem BioAssay (NCI)
